These results are taken from patent publication US20120289501A1, “Benzene-fused 6-membered oxygen-containing heterocyclic derivatives of bicyclic heteroaryls” (NOVARTIS AG, priority 2009, published 2012).

What all share (assay): Enzymatic kinase assay (filter-binding / flashplate, 33P incorporation)
Holding throughout (assay type): biochemical
Common to all, as to settings: enzymatic kinase selectivity

One assay addresses T1, Aurora A (Homo sapiens, UniProt O14965).
T1 sequence (O14965 1-403): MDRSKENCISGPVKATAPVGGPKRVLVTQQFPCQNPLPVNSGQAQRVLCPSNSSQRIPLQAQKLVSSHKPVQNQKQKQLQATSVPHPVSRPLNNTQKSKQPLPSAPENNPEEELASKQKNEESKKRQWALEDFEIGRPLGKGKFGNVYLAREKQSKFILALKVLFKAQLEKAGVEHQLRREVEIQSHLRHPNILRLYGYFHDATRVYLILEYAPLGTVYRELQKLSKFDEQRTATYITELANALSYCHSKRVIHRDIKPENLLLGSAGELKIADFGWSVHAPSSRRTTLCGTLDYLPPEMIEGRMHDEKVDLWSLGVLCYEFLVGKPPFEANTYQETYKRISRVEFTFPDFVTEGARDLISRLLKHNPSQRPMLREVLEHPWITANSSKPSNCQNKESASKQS
Here is the method: (§1) Two methods were used to analyze phosphorylated peptides and proteins produced by the listed tyrosine and serine/threonine-specific protein kinases: either using a filter-binding assay (FB), or using a flashplate assay (FP). The activities of protein kinases were assayed in the presence or absence of inhibitors, by measuring the incorporation of ^33P from [γ^33P]ATP into appropriate substrates.
(§2) 96-well polypropylene microplates were used to assay the activity in the FB mode. To determine the inhibitory activity of compounds 10 μL of compound dilutions were pipetted into 96-well plates followed by the addition of 10 μL of assay mix and 10 μL of individual enzymes. With the addition of the enzymes the reactions were initiated and continued at RT. The reactions were stopped by the addition of 50 μL of a 125 mM EDTA solution pH 8.0. The final concentration of DMSO in the enzyme assays was 1%.
(§3) Flashplates are available as 96-well standard (STFPs) or as streptavidin-(SAFPs) or nickel coated FPs (NiFPs) from Perkin Elmer. STFPs are 96-well polystyrene microplates in which the interior of each well is permanently coated with a thin layer of polystyrene-based scintillant. Streptavidin flashplates (SAFP) are 96 or 384-well STFPs coated with streptavidin. SAFPs are suitable for a wide variety of assay applications which utilize biotinylated capture molecules. NiFP or nickel chelate flashplates are 96- or 384-well STFPs coated with nickel chelate. NiFPs are designed for in-plate, radiometric assays which utilize 4- or 6-histidine tagged proteins and peptides.
(§4) All kinase assays were performed in STFPs for 60 mins at RT and stopped with 50 μL of 0.5% H3PO4 except PKA which were carried out in polypropylene 96- and 384-well plates, respectively. PKA assays were stopped with 50 μL of 125 mM EDTA (pH 8.0) and 50 μL were transferred to either SAFPs or NIFPs to capture the biotinylated or histidine tagged peptides phosphorylated by PKA (SAFP) or by NiFPs. All wells were then washed three times with 200 μL of 0.5% H3PO4 and the plates were dried at room temperature. The plates were sealed and counted in a microplate scintillation counter (TopCount NXT, TopCount NXT HTS). The final concentration of DMSO in the enzyme assays was 1%.

The target of a further assay is PDGFRa (Homo sapiens, UniProt P16234). The protocol:
as §1, §2, §3, §4

For the next assay, the target named is RET (Homo sapiens, UniProt P07949). Here is the method: as §1, §2, §3, §4
The target of a further assay is COT1 (Homo sapiens, UniProt P41279). The protocol:
as §1, §2, §3, §4

The target of another assay is CDK2A (Homo sapiens, UniProt P24941). Here is the method: as §1, §2, §3, §4
A further assay has as its target KDR (Homo sapiens, UniProt P35968). Here is the method: as §1, §2, §3, §4
Another assay has as its target IGF1R (Homo sapiens, UniProt P08069). Here is the method: as §1, §2, §3, §4
For a further assay, the target named is cMET (Homo sapiens, UniProt P08581). Here is the method: as §1, §2, §3, §4
cMET, sequence (P08581 25-1390): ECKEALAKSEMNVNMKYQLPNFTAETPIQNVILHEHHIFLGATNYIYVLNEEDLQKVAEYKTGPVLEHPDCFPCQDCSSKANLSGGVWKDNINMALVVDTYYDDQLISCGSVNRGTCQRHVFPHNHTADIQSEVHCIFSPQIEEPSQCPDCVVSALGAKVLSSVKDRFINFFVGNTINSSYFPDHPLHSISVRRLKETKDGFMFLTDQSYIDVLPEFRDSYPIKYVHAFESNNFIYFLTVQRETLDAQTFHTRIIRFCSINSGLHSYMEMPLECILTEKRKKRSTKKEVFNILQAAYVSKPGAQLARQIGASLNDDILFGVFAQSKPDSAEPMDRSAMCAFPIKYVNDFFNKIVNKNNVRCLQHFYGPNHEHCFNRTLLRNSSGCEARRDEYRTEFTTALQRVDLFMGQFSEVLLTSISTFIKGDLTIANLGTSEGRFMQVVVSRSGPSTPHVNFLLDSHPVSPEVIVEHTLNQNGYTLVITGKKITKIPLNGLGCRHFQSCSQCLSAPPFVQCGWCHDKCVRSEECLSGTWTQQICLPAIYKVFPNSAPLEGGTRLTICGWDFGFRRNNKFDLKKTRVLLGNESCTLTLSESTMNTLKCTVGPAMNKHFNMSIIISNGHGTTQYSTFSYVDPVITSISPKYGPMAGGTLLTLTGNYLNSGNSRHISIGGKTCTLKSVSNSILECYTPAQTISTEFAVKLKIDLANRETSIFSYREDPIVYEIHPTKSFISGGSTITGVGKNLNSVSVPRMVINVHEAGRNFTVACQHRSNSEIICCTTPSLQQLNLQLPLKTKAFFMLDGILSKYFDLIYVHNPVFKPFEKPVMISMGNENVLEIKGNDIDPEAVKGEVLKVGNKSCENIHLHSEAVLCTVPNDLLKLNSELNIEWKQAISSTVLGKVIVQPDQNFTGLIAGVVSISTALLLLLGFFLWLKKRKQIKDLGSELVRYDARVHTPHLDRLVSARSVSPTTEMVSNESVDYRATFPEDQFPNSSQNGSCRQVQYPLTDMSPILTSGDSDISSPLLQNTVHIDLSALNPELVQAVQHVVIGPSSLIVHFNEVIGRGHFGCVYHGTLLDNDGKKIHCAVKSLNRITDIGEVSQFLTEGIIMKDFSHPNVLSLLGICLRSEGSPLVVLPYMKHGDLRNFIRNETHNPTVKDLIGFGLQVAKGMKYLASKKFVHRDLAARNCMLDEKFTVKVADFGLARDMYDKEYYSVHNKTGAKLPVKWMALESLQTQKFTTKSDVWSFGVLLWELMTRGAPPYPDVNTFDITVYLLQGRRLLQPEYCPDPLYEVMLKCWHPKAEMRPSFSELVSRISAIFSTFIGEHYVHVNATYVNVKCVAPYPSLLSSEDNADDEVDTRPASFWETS
For a further assay, the target named is GSK3beta (Homo sapiens, UniProt P49841). The protocol:
as §1, §2, §3, §4

The next assay concerns the target JAK2 (Homo sapiens, UniProt O60674). Here is the method: as §1, §2, §3, §4
A further assay addresses EphA4 (Homo sapiens, UniProt P54764). Here is the method: as §1, §2, §3, §4
The target in the next assay is cKIT (Homo sapiens, UniProt P10721). Here is the method: as §1, §2, §3, §4
cKIT, sequence (P10721 26-976): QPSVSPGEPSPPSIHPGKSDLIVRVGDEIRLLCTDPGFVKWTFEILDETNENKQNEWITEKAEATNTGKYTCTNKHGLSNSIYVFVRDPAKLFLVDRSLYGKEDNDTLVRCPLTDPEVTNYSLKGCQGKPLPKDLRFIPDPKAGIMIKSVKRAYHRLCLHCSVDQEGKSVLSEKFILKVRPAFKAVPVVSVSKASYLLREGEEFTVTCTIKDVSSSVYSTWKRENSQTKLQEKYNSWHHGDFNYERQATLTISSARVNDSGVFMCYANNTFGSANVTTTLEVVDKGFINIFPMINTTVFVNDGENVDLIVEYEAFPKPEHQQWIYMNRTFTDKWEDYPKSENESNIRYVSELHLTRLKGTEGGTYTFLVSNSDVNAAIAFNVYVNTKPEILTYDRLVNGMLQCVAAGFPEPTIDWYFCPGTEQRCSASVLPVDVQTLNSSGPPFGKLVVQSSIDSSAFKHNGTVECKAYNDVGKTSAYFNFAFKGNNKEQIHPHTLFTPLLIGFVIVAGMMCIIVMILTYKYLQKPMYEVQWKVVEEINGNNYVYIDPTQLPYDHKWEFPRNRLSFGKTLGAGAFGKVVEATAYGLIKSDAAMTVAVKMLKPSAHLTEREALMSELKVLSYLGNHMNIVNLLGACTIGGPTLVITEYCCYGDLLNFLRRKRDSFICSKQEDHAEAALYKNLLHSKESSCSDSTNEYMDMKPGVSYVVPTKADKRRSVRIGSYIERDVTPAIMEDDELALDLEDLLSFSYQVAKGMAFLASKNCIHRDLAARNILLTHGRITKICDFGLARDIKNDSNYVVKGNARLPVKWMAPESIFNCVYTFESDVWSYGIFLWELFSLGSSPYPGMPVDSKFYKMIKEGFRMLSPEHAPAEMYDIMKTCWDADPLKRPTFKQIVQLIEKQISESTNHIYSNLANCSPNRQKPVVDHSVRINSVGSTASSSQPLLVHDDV
In a further assay the target is cABLT315 (Homo sapiens, UniProt P00519, T315I). Here is the method: as §1, §2, §3, §4
The next assay has as its target TYK2 (Homo sapiens, UniProt P29597). Here is the method: as §1, §2, §3, §4
A further assay deals with HER2 (Homo sapiens, UniProt P04626). Here is the method:
as §1, §2, §3, §4

The next assay addresses FGFR-4 (Homo sapiens, UniProt P22455). Here is the method:
as §1, §2, §3, §4

In another assay the target is P38a (Homo sapiens, UniProt Q16539). Here is the method:
as §1, §2, §3, §4

The next assay has as its target InsR (Homo sapiens, UniProt P06213). Here is the method: as §1, §2, §3, §4
In a further assay the target is MK2 (Homo sapiens, UniProt P49137). The protocol: as §1, §2, §3, §4
The target in the next assay is ERK2 (Homo sapiens, UniProt P28482). Here is the method:
as §1, §2, §3, §4

The target in another assay is LCK (Homo sapiens, UniProt P06239). Here is the method: as §1, §2, §3, §4
LCK, sequence (P06239 whole entry, species assumed): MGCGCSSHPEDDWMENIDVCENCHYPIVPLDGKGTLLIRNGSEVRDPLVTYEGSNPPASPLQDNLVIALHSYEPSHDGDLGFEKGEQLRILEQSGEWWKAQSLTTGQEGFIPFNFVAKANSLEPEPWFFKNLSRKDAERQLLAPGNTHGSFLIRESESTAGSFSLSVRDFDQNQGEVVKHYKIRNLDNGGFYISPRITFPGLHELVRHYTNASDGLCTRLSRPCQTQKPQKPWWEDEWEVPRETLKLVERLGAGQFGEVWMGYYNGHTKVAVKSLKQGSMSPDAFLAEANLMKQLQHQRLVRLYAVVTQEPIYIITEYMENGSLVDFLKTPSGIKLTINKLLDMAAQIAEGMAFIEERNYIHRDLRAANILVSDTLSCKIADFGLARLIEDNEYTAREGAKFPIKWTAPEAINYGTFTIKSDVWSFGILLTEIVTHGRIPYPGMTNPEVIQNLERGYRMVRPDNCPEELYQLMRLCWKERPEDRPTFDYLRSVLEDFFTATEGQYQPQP

GSK3beta, sequence (P49841 whole entry, species assumed): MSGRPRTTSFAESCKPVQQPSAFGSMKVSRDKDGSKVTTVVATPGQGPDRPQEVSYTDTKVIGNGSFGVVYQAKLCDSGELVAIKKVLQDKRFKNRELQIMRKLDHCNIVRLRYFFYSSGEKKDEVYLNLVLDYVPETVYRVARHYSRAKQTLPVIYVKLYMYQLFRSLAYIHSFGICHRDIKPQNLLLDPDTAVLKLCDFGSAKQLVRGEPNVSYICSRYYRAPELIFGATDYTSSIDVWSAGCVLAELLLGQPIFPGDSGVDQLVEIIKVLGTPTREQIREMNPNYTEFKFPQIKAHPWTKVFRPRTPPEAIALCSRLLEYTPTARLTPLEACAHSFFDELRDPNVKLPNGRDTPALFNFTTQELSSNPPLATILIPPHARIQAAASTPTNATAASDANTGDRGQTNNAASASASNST
COT1, sequence (P41279 whole entry): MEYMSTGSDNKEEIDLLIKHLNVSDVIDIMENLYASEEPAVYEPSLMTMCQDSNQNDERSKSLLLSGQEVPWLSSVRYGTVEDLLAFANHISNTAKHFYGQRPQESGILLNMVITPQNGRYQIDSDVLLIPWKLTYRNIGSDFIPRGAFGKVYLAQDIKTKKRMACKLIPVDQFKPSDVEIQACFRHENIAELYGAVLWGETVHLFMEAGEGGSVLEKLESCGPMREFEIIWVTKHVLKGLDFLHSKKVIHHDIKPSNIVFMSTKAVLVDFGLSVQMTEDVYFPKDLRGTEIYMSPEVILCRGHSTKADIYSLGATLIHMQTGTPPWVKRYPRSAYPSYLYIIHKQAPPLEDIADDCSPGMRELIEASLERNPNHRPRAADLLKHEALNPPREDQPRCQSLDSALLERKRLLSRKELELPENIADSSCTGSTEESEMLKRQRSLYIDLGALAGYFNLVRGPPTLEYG
TYK2, sequence (P29597 whole entry, species assumed): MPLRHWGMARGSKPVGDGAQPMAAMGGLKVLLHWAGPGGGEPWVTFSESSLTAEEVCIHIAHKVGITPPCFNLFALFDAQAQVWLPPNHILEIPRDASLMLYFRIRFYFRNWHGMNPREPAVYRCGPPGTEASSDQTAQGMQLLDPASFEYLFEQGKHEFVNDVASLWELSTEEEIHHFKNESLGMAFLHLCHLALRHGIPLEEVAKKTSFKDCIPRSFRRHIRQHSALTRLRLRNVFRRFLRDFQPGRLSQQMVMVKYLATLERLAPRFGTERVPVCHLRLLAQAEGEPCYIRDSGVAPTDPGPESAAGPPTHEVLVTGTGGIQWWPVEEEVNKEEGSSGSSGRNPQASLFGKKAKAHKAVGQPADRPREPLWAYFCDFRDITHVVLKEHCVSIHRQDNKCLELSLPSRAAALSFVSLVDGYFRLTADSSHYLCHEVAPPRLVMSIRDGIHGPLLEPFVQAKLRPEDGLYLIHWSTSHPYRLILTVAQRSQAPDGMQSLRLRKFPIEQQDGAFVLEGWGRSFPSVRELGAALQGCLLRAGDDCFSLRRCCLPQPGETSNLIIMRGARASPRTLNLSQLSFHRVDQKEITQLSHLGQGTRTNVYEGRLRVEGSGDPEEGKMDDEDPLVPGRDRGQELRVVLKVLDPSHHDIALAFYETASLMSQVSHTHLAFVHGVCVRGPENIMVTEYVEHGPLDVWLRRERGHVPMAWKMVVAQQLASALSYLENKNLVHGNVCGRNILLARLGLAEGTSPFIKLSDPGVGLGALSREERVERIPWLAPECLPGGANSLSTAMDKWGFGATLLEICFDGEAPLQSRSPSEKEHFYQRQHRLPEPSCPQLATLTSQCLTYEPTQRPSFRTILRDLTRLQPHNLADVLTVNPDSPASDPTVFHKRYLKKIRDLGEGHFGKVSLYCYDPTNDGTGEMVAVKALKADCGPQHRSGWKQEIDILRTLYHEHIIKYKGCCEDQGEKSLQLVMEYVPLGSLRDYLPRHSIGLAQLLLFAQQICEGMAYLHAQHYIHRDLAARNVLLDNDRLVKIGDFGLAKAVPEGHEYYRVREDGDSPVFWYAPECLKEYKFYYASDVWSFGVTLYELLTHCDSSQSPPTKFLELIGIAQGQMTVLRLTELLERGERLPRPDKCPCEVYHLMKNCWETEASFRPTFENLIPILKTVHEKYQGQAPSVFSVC

By IC50 is commonly meant the point on the concentration scale where inhibition reaches its midpoint. As to `CC(=O)NC[C@H]1C[C@@H](n2cc(-c3ccc4c(c3)OC(c3ccccc3)CC4)c3c(N)ncnc32)C1` (mixture of isomers) [Example 16, (R,S)—N-{cis-3-[4-Amino-5-(2-phenyl-chroman-7-yl)-pyrrolo[2,3-d]pyrimidin-7-yl]-cyclobutylmethyl}-acetamide], the IC50 on Aurora A was 4300 nM; at PDGFRa it was 1200 nM; at RET, 360 nM; at COT1, greater than 10000 nM; on CDK2A, greater than 10000 nM; at KDR, 160 nM. For the same compound, the IC50 at IGF1R is 50 nM; at cMET it was greater than 10000 nM; on GSK3beta, greater than 10000 nM; on JAK2, greater than 10000 nM; at EphA4, greater than 10000 nM; on cKIT, 3200 nM. Moreover, the IC50 on cABLT315 is 8000 nM; at TYK2, greater than 10000 nM; on HER2 it was greater than 10000 nM; on FGFR-4, greater than 10000 nM; on P38a, greater than 10000 nM; at InsR it was 780 nM. Also, the IC50 on MK2 was greater than 10000 nM; at ERK2, greater than 10000 nM; on LCK it was 4460 nM.
Consider `Nc1ncnc2c1c(-c1ccc3c(c1)OC(c1ccccc1)C=C3)cn2[C@H]1C[C@@H](CN2CCS(=O)(=O)CC2)C1` (mixture of isomers) [Example 21, (R,S)-7-[cis-3-(1,1-Dioxo-1-thiomorpholin-4-ylmethyl)-cyclobutyl]-5-(2-phenyl-2H-chromen-7-yl)-7H-pyrrolo[2,3-d]pyrimidin-4-ylamine], for which the IC50 was 4000 nM at Aurora A; 770 nM at PDGFRa; 25 nM at RET; greater than 10000 nM on COT1; greater than 10000 nM at CDK2A; 110 nM at KDR. In addition, the IC50 on IGF1R was 7.8 nM; at cMET it was greater than 10000 nM; at GSK3beta, greater than 10000 nM; at JAK2, greater than 10000 nM; at EphA4, greater than 10000 nM; on cKIT, 770 nM. The IC50 is greater than 10000 nM on cABLT315; greater than 10000 nM at TYK2; greater than 10000 nM on HER2; greater than 10000 nM on FGFR-4; greater than 10000 nM on P38a; 73 nM at InsR. The values for the IC50 at MK2, at ERK2 and at LCK were greater than 10000 nM, greater than 10000 nM and 3600 nM, respectively.
Consider `CC(=O)N1CCN([C@H]2C[C@@H](n3cc(-c4ccc5c(c4)OC(c4ccccc4)CC5)c4c(N)ncnc43)C2)CC1` (relative stereo) [Example 38, 1-(4-{cis-3-[4-Amino-5-(2-phenyl-chroman-7-yl)-pyrrolo[2,3-d]pyrimidin-7-yl]-cyclobutyl}-piperazin-1-yl)-ethanone], for which the IC50 was greater than 10000 nM at Aurora A; greater than 10000 nM at PDGFRa; 410 nM at RET; greater than 10000 nM at COT1; greater than 10000 nM on CDK2A; 240 nM at KDR. Besides, the IC50 at IGF1R was 17 nM; on cMET, greater than 10000 nM; at GSK3beta it was greater than 10000 nM; on JAK2, greater than 10000 nM; at EphA4, greater than 10000 nM; on cKIT it was 6000 nM. Moreover, the IC50 was greater than 10000 nM on cABLT315; greater than 10000 nM at TYK2; greater than 10000 nM at HER2; greater than 10000 nM on FGFR-4; greater than 10000 nM at P38a; 100 nM at InsR. The IC50 on MK2 was greater than 10000 nM; at ERK2, greater than 10000 nM; at LCK, 3800 nM.
In the case of `Nc1ncnc2c1c(-c1ccc3c(c1)OC(c1ccccc1)CC3)cn2C1CC(O)(CO)C1` (single isomer, unassigned) [Example 26], the IC50 is 8800 nM on Aurora A; greater than 10000 nM on PDGFRa; 760 nM at RET; greater than 10000 nM at COT1; greater than 10000 nM at CDK2A; 250 nM at KDR. The IC50 was 58 nM on IGF1R; greater than 10000 nM at cMET; greater than 10000 nM at GSK3beta; greater than 10000 nM at JAK2; greater than 10000 nM on EphA4; greater than 10000 nM at cKIT. The IC50 at cABLT315 is 4350 nM; at TYK2 it was greater than 10000 nM; at HER2, greater than 10000 nM; on FGFR-4, 8900 nM; at P38a, greater than 10000 nM; at InsR, 1450 nM. In addition, the IC50 was greater than 10000 nM at MK2, greater than 10000 nM on ERK2 and 6150 nM at LCK.
